Data: patent US8883826B2, “Alkynyl derivatives as modulators of metabotropic glutamate receptors” (Addex Pharma SA, priority 2004, dated 2014)

Molecular target: T1, mGluR5 (Rattus norvegicus, UniProt P31424)
T1 construct: tissue Charles River Laboratories; host or cells: rat brain cortex membranes (Sprague-Dawley)
Experiment: mGluR5 binding assay ([3H]-MPEP radioligand competition)
Conditions: competition with 3 nM [3H]-MPEP, rat brain cortical membranes, 1 h at 4 °C; mean of at least three independent experiments in duplicate
Excerpt: Activity of compounds of the invention was examined following a radioligand binding technique using whole rat brain and tritiated 2-methyl-6-(phenylethynyl)-pyridine ([^3H]-MPEP) as a ligand following similar methods than those described in F. Gasparini et al. Bioorg. Med. Chem. Lett. 2002, 12, 407-409 and in J. F. Anderson et al. J. Pharmacol. Exp. Ther. 2002, 303, 3, 1044-1051.
Cortices were dissected out from brains of 200-300 g Sprague-Dawley rats (Charles River Laboratories, L'Arbresle, France). Tissues were homogenized in 10 volumes (vol/wt) of ice-cold 50 mM Hepes-NaOH (pH 7.4) using a Polytron disrupter (Kinematica AG, Luzern, Switzerland) and centrifuged for 30 min at 40,000 g. (4° C.). The supernatant was discarded and the pellet washed twice by resuspension in 10 volumes 50 mM HEPES-NaOH. Membranes were then collected by centrifugation and washed before final resuspension in 10 volumes of 20 mM HEPES-NaOH, pH 7.4. Protein concentration was determined by the Bradford method (Bio-Rad protein assay, Reinach, Switzerland) with bovine serum albumin as standard.
[^3H]-MPEP Binding Experiments:
Membranes were thawed and resuspended in binding buffer containing 20 mM HEPES-NaOH, 3 mM MgCl2, 3 mM CaCl2, 100 mM NaCl, pH 7.4. Competition studies were carried out by incubating for 1 h at 4° C.: 3 nM [^3H]-MPEP (39 Ci/mmol, Tocris, Cookson Ltd, Bristol, U.K.), 50 μg membrane and a concentration range of 0.003 nM-30 μM of compounds, for a total reaction volume of 300 μl. The non-specific binding was defined using 30 μM MPEP. Reaction was terminated by rapid filtration over glass-fiber filter plates (Unifilter 96-well GF/B filter plates, Perkin-Elmer, Schwerzenbach, Switzerland) using 4×400 μl ice cold buffer using cell harvester (Filtermate, Perkin-Elmer, Downers Grove, USA). Radioactivity was determined by liquid scintillation spectrometry using a 96-well plate reader (TopCount, Perkin-Elmer, Downers Grove, USA).
The inhibition curves were generated using the Prism GraphPad program (Graph Pad Software Inc, San Diego, USA). IC50 determinations were made from data obtained from 8 point-concentration response curves using a non linear regression analysis.
The table below represents the mean of IC50 obtained from at least three independent experiments of selected molecules performed in duplicate.

T1 sequence (P31424 21-1203): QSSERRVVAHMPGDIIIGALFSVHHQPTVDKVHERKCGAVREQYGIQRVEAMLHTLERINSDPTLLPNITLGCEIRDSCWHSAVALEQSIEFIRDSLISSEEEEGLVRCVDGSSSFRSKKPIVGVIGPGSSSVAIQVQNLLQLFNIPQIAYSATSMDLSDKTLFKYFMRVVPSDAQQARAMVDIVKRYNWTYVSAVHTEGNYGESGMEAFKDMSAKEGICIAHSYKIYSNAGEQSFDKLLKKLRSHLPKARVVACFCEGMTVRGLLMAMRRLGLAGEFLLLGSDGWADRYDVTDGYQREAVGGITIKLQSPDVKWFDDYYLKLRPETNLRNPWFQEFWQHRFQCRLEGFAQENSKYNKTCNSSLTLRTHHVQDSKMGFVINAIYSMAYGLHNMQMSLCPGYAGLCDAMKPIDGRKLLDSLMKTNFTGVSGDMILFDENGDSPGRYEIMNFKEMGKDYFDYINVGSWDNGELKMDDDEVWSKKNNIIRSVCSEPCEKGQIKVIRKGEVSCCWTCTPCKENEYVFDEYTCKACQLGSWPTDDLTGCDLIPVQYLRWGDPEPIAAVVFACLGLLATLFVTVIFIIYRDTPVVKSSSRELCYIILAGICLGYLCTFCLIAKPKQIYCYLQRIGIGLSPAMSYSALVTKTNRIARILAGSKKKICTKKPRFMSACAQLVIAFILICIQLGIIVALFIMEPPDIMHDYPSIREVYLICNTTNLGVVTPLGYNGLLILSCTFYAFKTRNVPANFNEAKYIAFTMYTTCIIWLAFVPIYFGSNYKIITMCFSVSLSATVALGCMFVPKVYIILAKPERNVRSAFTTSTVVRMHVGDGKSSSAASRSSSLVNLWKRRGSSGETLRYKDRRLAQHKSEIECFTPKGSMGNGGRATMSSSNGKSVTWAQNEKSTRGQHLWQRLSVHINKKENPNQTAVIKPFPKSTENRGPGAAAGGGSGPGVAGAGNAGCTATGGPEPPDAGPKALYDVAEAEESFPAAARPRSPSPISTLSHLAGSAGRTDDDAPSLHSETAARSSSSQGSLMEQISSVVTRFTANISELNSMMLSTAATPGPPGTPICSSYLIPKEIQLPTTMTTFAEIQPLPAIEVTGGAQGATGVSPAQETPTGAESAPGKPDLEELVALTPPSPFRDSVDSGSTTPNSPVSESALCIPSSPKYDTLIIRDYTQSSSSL

With “2-(4-(3-Methyl-4-phenyl-1H-pyrazol-1-yl)but-1-ynyl)pyridine and 2-(4-(5-methyl-4-phenyl-1H-pyrazol-1-yl)but-1-ynyl)pyridine [Example 174]” as the compound, how does the IC50 read?
The IC50 was less than 10 µM.

With `Cc1nc(C#CCCc2ccccc2)cs1` [Example 1, 2-Methyl-(4-(4-phenyl)but-1-ynyl)thiazole] as the compound, how does the IC50 read?
The IC50 was less than 0.5 µM.

For `CCc1ccccc1-c1noc(CCC#Cc2ccccn2)n1` [Example 2, 2-(4-(3-(2-Ethylphenyl)-1,2,4-oxadiazol-5-yl)but-1-ynyl)pyridine], which IC50 is on record?
Its IC50 is less than 10 µM.

How did the IC50 turn out when `O=C1c2ccccc2C(=O)N1CCC#Cc1ccccn1` [Example 3, 2-(4-(Pyridin-2-yl)but-3-ynyl)isoindoline-1,3-dione] was run?
Its IC50 is less than 10 µM.

`O=c1c2ccccc2cnn1CCC#Cc1ccccn1` [Example 4, 2-(4-(Pyridin-2-yl)but-3-ynyl)phthalazin-1(2H)-one] was tested. Which IC50 did it give?
The IC50 was less than 10 µM.

With `C(#Cc1ccc2ccccc2n1)CCc1ccccc1` [Example 5, 2-(4-Phenylbut-1-ynyl)quinoline] as the compound, how does the IC50 read?
Its IC50 is less than 10 µM.

For `C(#Cc1nc2ccccc2o1)CCc1ccccc1` [Example 7, 2-(4-Phenylbut-1-ynyl)benzo[d]oxazole], which IC50 is on record?
The IC50 was less than 0.5 µM.

For `Fc1ccc(-c2noc(CCC#Cc3ccccn3)n2)cc1` [Example 9, 2-(4-(3-(4-Fluorophenyl)-1,2,4-oxadiazol-5-yl)but-1-ynyl)pyridine], which IC50 is on record?
Its IC50 is less than 10 µM.

Which IC50 does the source give for `C(#Cc1ccccn1)CCc1nc(-c2ccccc2)no1` [Example 10] here?
Its IC50 is less than 10 µM.

Which IC50 does the source give for `CN(C(=O)CCC#Cc1ccccn1)c1ccc(F)cc1` [Example 13, N-(4-Fluorophenyl)-N-methyl-5-(pyridin-2-yl)pent-4-ynamide] here?
The IC50 was less than 0.5 µM.

For `C(#Cc1ccccn1)CCc1csc(-c2ccccc2)n1` [Example 14, 2-(4-(2-Phenylthiazol-4-yl)but-1-ynyl)pyridine], which IC50 is on record?
The IC50 was less than 10 µM.

`Cc1ccccc1-c1noc(CCC#Cc2ccccn2)n1` [Example 15] was tested. Which IC50 did it give?
Its IC50 is less than 0.5 µM.

Which IC50 does the source give for `C(#Cc1ccccn1)CCc1nc(Cc2ccccc2)no1` [Example 16, 2-(4-(3-Benzyl-1,2,4-oxadiazol-5-yl)but-1-ynyl)pyridine] here?
The IC50 was less than 10 µM.

For `Fc1ccccc1Cc1noc(CCC#Cc2ccccn2)n1` [Example 17, 2-(4-(3-(2-Fluorobenzyl)-1,2,4-oxadiazol-5-yl)but-1-ynyl)pyridine], which IC50 is on record?
Its IC50 is less than 10 µM.

`Cc1ccccc1Cc1noc(CCC#Cc2ccccn2)n1` [Example 18, 2-(4-(3-(2-Methylbenzyl)-1,2,4-oxadiazol-5-yl)but-1-ynyl)pyridine] was tested. Which IC50 did it give?
Its IC50 is less than 10 µM.

`Fc1ccc(Cc2noc(CCC#Cc3ccccn3)n2)cc1` [Example 19, 2-(4-(3-(4-Fluorobenzyl)-1,2,4-oxadiazol-5-yl)but-1-ynyl)pyridine] was tested. Which IC50 did it give?
The IC50 was less than 10 µM.

Which IC50 does the source give for `COc1ccc(Cc2noc(CCC#Cc3ccccn3)n2)cc1` [Example 20, 2-(4-(3-(4-Methoxybenzyl)-1,2,4-oxadiazol-5-yl)but-1-ynyl)pyridine] here?
Its IC50 is less than 10 µM.

Which IC50 does the source give for `CC(C)c1noc(CCC#Cc2ccccn2)n1` [Example 21, 2-(4-(3-Isopropyl-1,2,4-oxadiazol-5-yl)but-1-ynyl)pyridine] here?
Its IC50 is less than 10 µM.

With `CCCCc1noc(CCC#Cc2ccccn2)n1` [Example 22, 2-(4-(3-Butyl-1,2,4-oxadiazol-5-yl)but-1-ynyl)pyridine] as the compound, how does the IC50 read?
Its IC50 is less than 10 µM.

With `Fc1cccc(Cc2noc(CCC#Cc3ccccn3)n2)c1` [Example 23, 2-(4-(3-(3-Fluorobenzyl)-1,2,4-oxadiazol-5-yl)but-1-ynyl)pyridine] as the compound, how does the IC50 read?
Its IC50 is less than 10 µM.

How did the IC50 turn out when `COc1cccc(Cc2noc(CCC#Cc3ccccn3)n2)c1` [Example 24, 2-(4-(3-(3-Methoxybenzyl)-1,2,4-oxadiazol-5-yl)but-1-ynyl)pyridine] was run?
Its IC50 is less than 10 µM.

How did the IC50 turn out when `Fc1ccccc1-c1noc(CCC#Cc2ccccn2)n1` [Example 25, 2-(4-(3-(2-Fluorophenyl)-1,2,4-oxadiazol-5-yl)but-1-ynyl)pyridine] was run?
Its IC50 is less than 0.5 µM.

With `Fc1cccc(-c2noc(CCC#Cc3ccccn3)n2)c1` [Example 26, 2-(4-(3-(3-Fluorophenyl)-1,2,4-oxadiazol-5-yl)but-1-ynyl)pyridine] as the compound, how does the IC50 read?
The IC50 was less than 10 µM.
